Reference: patent US20250163054A1, “SUBSTITUTED BICYCLIC HETEROARYL COMPOUNDS USEFUL AS INHIBITORS OF TLR9” (Bristol-Myers Squibb Company, priority 2022, published 2025)

Experiments:
Format in all cases: cell-based
human TLR9 = target: T1, human TLR9 (Homo sapiens, UniProt Q9NR96); assay: TLR7/8/9 Inhibition Reporter Assays (TLR9); conditions: HEK-Blue cells overexpressing human TLR9, SEAP reporter, stimulated with TLR9 ligand ODN2006
T1 construct: host or cells: HEK-Blue cells (HEK293-derived reporter line)
T1 sequence (Q9NR96 26-1032): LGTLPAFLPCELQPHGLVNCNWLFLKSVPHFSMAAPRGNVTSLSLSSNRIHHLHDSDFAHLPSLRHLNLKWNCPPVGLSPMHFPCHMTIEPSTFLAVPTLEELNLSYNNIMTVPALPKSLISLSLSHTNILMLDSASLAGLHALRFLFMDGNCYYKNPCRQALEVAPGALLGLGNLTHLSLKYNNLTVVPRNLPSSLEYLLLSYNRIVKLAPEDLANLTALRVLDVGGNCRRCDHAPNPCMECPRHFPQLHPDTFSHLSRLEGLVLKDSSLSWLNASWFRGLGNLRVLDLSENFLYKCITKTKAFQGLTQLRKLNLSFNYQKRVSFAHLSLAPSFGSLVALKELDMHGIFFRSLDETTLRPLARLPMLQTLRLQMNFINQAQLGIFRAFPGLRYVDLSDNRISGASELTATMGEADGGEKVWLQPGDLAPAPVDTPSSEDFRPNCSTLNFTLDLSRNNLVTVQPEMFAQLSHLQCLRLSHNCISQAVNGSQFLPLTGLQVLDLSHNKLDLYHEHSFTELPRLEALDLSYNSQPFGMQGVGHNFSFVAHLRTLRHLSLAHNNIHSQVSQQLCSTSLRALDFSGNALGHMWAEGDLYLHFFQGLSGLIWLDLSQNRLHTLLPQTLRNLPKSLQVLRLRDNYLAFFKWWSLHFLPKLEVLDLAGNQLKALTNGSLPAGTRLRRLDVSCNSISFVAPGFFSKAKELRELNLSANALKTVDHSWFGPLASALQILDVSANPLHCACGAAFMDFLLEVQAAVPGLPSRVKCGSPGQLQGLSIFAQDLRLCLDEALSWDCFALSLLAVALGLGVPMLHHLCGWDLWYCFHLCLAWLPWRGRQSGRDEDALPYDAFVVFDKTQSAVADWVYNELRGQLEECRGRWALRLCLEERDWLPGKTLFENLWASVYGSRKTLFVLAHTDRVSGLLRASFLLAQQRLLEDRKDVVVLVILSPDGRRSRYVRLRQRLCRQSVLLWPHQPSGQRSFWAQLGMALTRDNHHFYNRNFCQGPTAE
How it was run: (§1)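 HEK-Blue cells overexpressing human TLR7, TLR8 or TLR9 with NF-κB/AP-1-driven SEAP reporter, pre-treated 60 min with compound ([…]). Stimulated with […] (TLR7), […] (TLR8) or ODN2006 200 nM (TLR9), then 22 h at 37° C; SEAP measured, % inhibition relative to agonist-plus-DMSO and known-inhibitor wells.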

human TLR7 = target: T2, human TLR7 (Homo sapiens, UniProt Q9NYK1); assay: TLR7/8/9 Inhibition Reporter Assays (TLR7); conditions: HEK-Blue cells overexpressing human TLR7, SEAP reporter, stimulated with TLR7 ligand gardiquimod
T2 construct: host or cells: HEK-Blue cells (HEK293-derived reporter line)
T2 sequence (Q9NYK1 27-1049): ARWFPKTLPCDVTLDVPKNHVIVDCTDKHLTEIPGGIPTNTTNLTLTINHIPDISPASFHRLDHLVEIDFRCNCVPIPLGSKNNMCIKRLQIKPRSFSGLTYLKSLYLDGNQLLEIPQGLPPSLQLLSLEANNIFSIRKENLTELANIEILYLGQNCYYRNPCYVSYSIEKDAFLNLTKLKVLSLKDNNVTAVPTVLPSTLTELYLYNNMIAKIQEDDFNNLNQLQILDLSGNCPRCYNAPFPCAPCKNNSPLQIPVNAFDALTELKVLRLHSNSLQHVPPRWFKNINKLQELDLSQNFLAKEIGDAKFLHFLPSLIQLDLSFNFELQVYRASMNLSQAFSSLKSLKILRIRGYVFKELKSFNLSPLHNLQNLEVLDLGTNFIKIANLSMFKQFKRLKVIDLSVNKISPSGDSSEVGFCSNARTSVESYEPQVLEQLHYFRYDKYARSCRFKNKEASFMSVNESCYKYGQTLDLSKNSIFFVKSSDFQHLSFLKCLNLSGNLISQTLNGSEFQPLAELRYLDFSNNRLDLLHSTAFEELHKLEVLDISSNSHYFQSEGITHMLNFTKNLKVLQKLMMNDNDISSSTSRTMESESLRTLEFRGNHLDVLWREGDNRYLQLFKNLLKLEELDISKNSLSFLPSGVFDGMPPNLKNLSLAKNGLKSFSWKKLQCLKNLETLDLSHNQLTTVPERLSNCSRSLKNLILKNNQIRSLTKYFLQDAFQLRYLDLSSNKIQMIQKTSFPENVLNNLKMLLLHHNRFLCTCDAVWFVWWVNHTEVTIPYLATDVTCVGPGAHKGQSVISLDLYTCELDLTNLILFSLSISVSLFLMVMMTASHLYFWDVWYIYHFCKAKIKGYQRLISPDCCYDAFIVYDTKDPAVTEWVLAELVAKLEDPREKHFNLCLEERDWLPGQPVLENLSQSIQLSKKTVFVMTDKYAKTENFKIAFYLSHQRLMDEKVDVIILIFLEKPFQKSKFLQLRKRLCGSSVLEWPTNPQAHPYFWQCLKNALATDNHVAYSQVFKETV
How it was run: as §1

human TLR8 = target: T3, human TLR8 (Homo sapiens, UniProt Q9NR97); assay: TLR7/8/9 Inhibition Reporter Assays (TLR8); conditions: HEK-Blue cells overexpressing human TLR8, SEAP reporter, stimulated with TLR8 ligand R848
T3 construct: host or cells: HEK-Blue cells (HEK293-derived reporter line)
T3 sequence (Q9NR97 27-1041): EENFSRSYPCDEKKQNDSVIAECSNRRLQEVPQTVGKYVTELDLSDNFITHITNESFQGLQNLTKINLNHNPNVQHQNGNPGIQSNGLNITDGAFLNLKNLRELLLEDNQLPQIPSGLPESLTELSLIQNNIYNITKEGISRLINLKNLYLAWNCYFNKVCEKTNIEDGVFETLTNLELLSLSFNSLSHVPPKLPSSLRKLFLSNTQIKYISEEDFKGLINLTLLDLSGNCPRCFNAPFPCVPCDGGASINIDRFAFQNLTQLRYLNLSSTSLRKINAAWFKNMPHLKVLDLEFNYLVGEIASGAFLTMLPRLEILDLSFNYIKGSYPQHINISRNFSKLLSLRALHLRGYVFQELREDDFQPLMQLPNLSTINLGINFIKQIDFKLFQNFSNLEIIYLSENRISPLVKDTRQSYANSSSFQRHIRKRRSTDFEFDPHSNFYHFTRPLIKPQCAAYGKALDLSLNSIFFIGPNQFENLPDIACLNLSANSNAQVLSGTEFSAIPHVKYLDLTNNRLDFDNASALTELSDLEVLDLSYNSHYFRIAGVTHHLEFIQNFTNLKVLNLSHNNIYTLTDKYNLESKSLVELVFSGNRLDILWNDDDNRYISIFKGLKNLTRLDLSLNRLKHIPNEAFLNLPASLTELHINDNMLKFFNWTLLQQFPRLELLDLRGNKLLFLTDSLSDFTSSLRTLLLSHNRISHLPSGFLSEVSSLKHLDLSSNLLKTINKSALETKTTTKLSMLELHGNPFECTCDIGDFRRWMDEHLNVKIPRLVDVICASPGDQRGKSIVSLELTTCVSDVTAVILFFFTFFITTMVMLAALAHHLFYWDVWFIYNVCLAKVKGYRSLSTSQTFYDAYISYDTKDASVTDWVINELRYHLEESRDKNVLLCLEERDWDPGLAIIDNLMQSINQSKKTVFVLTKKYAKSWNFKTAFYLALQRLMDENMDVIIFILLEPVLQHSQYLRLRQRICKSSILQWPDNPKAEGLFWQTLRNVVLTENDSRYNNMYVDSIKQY
How it was run: as §1

IC50 (human TLR9)	IC50 (human TLR7)	IC50 (human TLR8)	Compound
290 nM	1500 nM	2000 nM	CC(C)N1C[C@H]2CN(c3ccc(-c4cc5c(cn4)nc(-c4ccc(S(C)(=O)=O)cc4)n5C4CC4)cc3)C[C@H]2C1 [Example 87, 1-cyclopropyl-6-(4-((3aR,6aS)-5-isopropylhexahydropyrrolo[3,4-c]pyrrol-2(1H)-yl)phenyl)-2-(4-(methylsulfonyl)phenyl)-1H-imidazo[4,5-c]pyridine]
330 nM	3400 nM	1100 nM	CC(C)CN1C[C@@H]2CN(c3ccc(-c4cc5c(cn4)nc(-c4ccc(S(C)(=O)=O)cc4)n5C4CC4)cc3)C[C@@H]2C1 [Example 88, 1-cyclopropyl-6-(4-((3aR,6aS)-5-isobutylhexahydropyrrolo[3,4-c]pyrrol-2(1H)-yl)phenyl)-2-(4-(methylsulfonyl)phenyl)-1H-imidazo[4,5-c]pyridine]
420 nM	1900 nM	4500 nM	CC(C)N1CC2(CN(c3ccc(-c4cc5c(cn4)nc(-c4ccc(S(C)(=O)=O)cc4)n5C4CC4)cc3)C2)C1 [Example 89, 1-cyclopropyl-6-(4-(6-isopropyl-2,6-diazaspiro[3.3]heptan-2-yl)phenyl)-2-(4-(methylsulfonyl)phenyl)-1H-imidazo[4,5-c]pyridine]
440 nM	5800 nM	2900 nM	CC(C)CN1CC2(C1)CN(c1ccc(-c3cc4c(cn3)nc(-c3ccc(S(C)(=O)=O)cc3)n4C3CC3)cc1)C2 [Example 90, 1-cyclopropyl-6-(4-(6-isobutyl-2,6-diazaspiro[3.3]heptan-2-yl)phenyl)-2-(4-(methylsulfonyl)phenyl)-1H-imidazo[4,5-c]pyridine]
170 nM	5500 nM	6800 nM	Cc1nc(-c2ccc(N3CCC4(CC3)CN(CC(C)(C)O)C4)cc2)cc2c1nc(-c1ccc(S(C)(=O)=O)cc1)n2C [Example 91, 1-(7-(4-(1,4-dimethyl-2-(4-(methylsulfonyl)phenyl)-1H-imidazo[4,5-c]pyridin-6-yl)phenyl)-2,7-diazaspiro[3.5]nonan-2-yl)-2-methylpropan-2-ol]
1000 nM	1500 nM	> 50000 nM	COc1ccc(-c2nc3c(C)nc(-c4ccc(N5CCC6(CC5)CN(CC(C)(C)O)C6)cc4)cc3n2C)cc1OC [Example 92, 1-(7-(4-(2-(3,4-dimethoxyphenyl)-1,4-dimethyl-1H-imidazo[4,5-c]pyridin-6-yl)phenyl)-2,7-diazaspiro[3.5]nonan-2-yl)-2-methylpropan-2-ol]
79 nM	810 nM	2000 nM	Cc1nc(-c2ccc(N3C[C@H]4CN(CC(C)(C)O)C[C@H]4C3)cc2)cc2c1nc(-c1ccc(S(C)(=O)=O)cc1)n2C [Example 93, 1-((3aR,6aS)-5-(4-(1,4-dimethyl-2-(4-(methylsulfonyl)phenyl)-1H-imidazo[4,5-c]pyridin-6-yl)phenyl)hexahydropyrrolo[3,4-c]pyrrol-2(1H)-yl)-2-methylpropan-2-ol]
250 nM	2600 nM	44000 nM	COc1ccc(-c2nc3c(C)nc(-c4ccc(N5C[C@H]6CN(CC(C)(C)O)C[C@H]6C5)cc4)cc3n2C)cc1OC [Example 94, 1-((3aR,6aS)-5-(4-(2-(3,4-dimethoxyphenyl)-1,4-dimethyl-1H-imidazo[4,5-c]pyridin-6-yl)phenyl)hexahydropyrrolo[3,4-c]pyrrol-2(1H)-yl)-2-methylpropan-2-ol]
350 nM	2100 nM	890 nM	CC(C)N1CC2(CCN(c3ccc(-c4cc5c(cn4)nc(-c4ccc(S(C)(=O)=O)cc4)n5C)cc3)CC2)C1 [Example 95, 6-(4-(2-isopropyl-2,7-diazaspiro[3.5]nonan-7-yl)phenyl)-1-methyl-2-(4-(methylsulfonyl)phenyl)-1H-imidazo[4,5-c]pyridine]
240 nM	3000 nM	990 nM	CC(C)CN1CC2(CCN(c3ccc(-c4cc5c(cn4)nc(-c4ccc(S(C)(=O)=O)cc4)n5C)cc3)CC2)C1 [Example 96, 6-(4-(2-isobutyl-2,7-diazaspiro[3.5]nonan-7-yl)phenyl)-1-methyl-2-(4-(methylsulfonyl)phenyl)-1H-imidazo[4,5-c]pyridine]
78 nM	6200 nM	6800 nM	Cc1nc(-c2ccc(N3CC4(CN(CC(C)(C)O)C4)C3)cc2)cc2c1nc(-c1ccc(S(C)(=O)=O)cc1)n2C [Example 97, 1-(6-(4-(1,4-dimethyl-2-(4-(methylsulfonyl)phenyl)-1H-imidazo[4,5-c]pyridin-6-yl)phenyl)-2,6-diazaspiro[3.3]heptan-2-yl)-2-methylpropan-2-ol]
63 nM	2400 nM	> 50000 nM	Cc1nc(-c2ccc(N3CC4(CCN(CC(C)C)CC4)C3)cc2)cc2c1nc(-c1ccc(S(C)(=O)=O)cc1)n2C [Example 98, 6-(4-(7-isobutyl-2,7-diazaspiro[3.5]nonan-2-yl)phenyl)-1,4-dimethyl-2-(4-(methylsulfonyl)phenyl)-1H-imidazo[4,5-c]pyridine]
